{"source": "patent US20190274300A1", "about": "“PRESERVATIVE SOLUTION FOR LIVE CELLS OR COMPOSITION CONTAINING LIVE CELLS” (TERUMO KABUSHIKI KAISHA, priority 2016, published 2019)", "test_system": "sheet-shaped human skeletal myoblast cell culture", "assay": "Cell survival rate confirmation test: sheet-shaped cell culture kept refrigerated in preservative solution, PI staining, flow cytometry", "assay_type": "cell-based", "settings": "2° C. to 8° C.", "description": "The sheet-shaped cell cultures were prepared using skeletal myoblast cells (with fibroblast cells contained therein) prepared from a human skeletal muscle by a usual or known method. A cell mixture of human skeletal myoblast cells and human fibroblast cells suspended in a 20% human serum-containing DMEM/F12 medium (Thermo Fisher Scientific Inc.) was seeded at 3.7×10^6 cells/well on a temperature-responsive culture dish (UpCell® 12 well Multi-well, CellSeed Inc.), and was then subjected to the sheet-formation cultivation at 37° C. under 5% CO2 for 12 to 26 hours. After the sheet-formation cultivation, the medium was removed, 700 μL of HBSS (+) (Thermo Fisher Scientific Inc.) which was chilled to 4° C. was added, and then the resultant was left to stand for 10 minutes. Then, gentle pipetting was conducted such as to detach the sheet-shaped cell culture completely.\nAfter the sheet-shaped cell culture was completely detached, HBSS (+) was removed, and a fresh supply of room-temperature HBSS (+) was added to conduct rinsing. Such a washing step was repeated four times.\nThe sheet-shaped cell culture left to stand under the refrigerated conditions in (1) above was put to measurement of cell survival rate. After the sheet-shaped cell culture left to stand in the preservative solution for a predetermined period was dissociated with a trypsin-like protease, the cells were dispensed into a FACS tube to be 3.5×10^5 cells, followed by centrifugation, and the supernatant was discarded. To the resultant was added 3 ml of 0.5% BAS-containing PBS solution, and, after rinsing the cells by vortex, centrifugation was conducted, the supernatant was removed, and 500 μL of a propidium iodide (PI, Becton Dickinson) prepared to a final concentration of 0.6 μg/mL by use of a 0.5% BSA-containing PBS solution was added and mixed. Immediately after the mixing, the mixture was put to reaction at room temperature under a light shielding condition for approximately five minutes. After the reaction, a 0.5% BSA-containing PBS solution was added, the cells were rinsed by vortex, followed by centrifugation, then the supernatant was removed, 500 μL of a 0.5% BSA-containing PBS solution was added, and the resultant was put to an analysis. The analysis was conducted using a flow cytometer (Becton Dickinson), and the proportion of PI-unstained cells contained in the whole cells admixed with PI was measured. […]\nAs a control, a DMEM medium (Thermo Fisher Scientific Inc.) was used."}
{"compound": "tocopherol [vitamin E]", "values": [{"measurement": "cell survival rate", "setting": "10 μM vitamin E in physiological saline solution, three days", "value": "approximately 65%"}, {"measurement": "cell survival rate", "setting": "100 μM vitamin E in physiological saline solution, three days", "value": "approximately 65%"}]}
{"compound": "CC1=NN(c2ccccc2)C(=O)C1", "note": "[edaravone, 3-methyl-1-phenyl-2-pyrazolin-5-one]", "values": [{"measurement": "cell survival rate", "setting": "1 μM edaravone in physiological saline solution, five days", "value": "approximately 95%"}, {"measurement": "cell survival rate as compared to the case of no addition of edaravone", "setting": "1 μM or 10 μM edaravone in physiological saline solution, five days", "value": "increased"}, {"measurement": "cell survival rate", "setting": "10 μM edaravone in physiological saline solution, five days", "value": "approximately 97%"}, {"measurement": "lowering in the number of live cells from three days to seven days of preservation, compared to edaravone-nonadded HBSS (+)", "setting": "100 μM edaravone in HBSS (+)", "value": "restrained"}, {"measurement": "cell survival rate as compared to HBSS (+) not admixed with edaravone", "setting": "100 μM edaravone in HBSS (+), three days to seven days", "value": "higher cell survival rate"}]}
{"compound": "O=C1O[C@H]([C@@H](O)CO)C(O)=C1O", "note": "[vitamin C, ascorbic acid]", "values": [{"measurement": "cell survival rate", "setting": "0.2 mM vitamin C in physiological saline solution, three days", "value": "approximately 63%"}, {"measurement": "cell survival rate", "setting": "2 mM vitamin C in physiological saline solution, three days", "value": "approximately 85%"}]}
